Data as given in patent US8802597B2, “Herbicidal pyrimidines” (E I du Pont de Nemours and Company, priority 2003, dated 2014).

How the values were obtained:
Assay in all cases: Test C pre/postemergence
Format in all cases: in vivo
[1] = tested on: johnsongrass (Sorghum halepense); details: for Johnsongrass plant response rating: scale 0 to 100 (0 no effect, 100 complete control)
In short: (§1)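 Greenhouse herbicide screen, visual readout. Compound in solvent/surfactant applied preemergence at planting or postemergence to 1- to 4-leaf plants; assessed at 12–14 days on a 0–100 control scale.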

[2] = tested on: velvetleaf (Abutilon theophrasti); details: for Velvetleaf plant response rating: scale 0 to 100 (0 no effect, 100 complete control)
In short: as §1

[3] = tested on: common ragweed (Ambrosia elatior); details: for Ragweed plant response rating: scale 0 to 100 (0 no effect, 100 complete control)
In short: as §1

[4] = tested on: lambsquarters (Chenopodium album); details: for Lambsquarters plant response rating: scale 0 to 100 (0 no effect, 100 complete control)
In short: as §1

[5] = tested on: cocklebur (Xanthium strumarium); details: for Cocklebur plant response rating: scale 0 to 100 (0 no effect, 100 complete control); for Plant response rating, Cocklebur: scale 0 to 100
In short: as §1

[6] = tested on: pigweed (Amaranthus retroflexus); details: for Pigweed plant response rating: scale 0 to 100 (0 no effect, 100 complete control)
In short: as §1

[7] = tested on: bermudagrass (Cynodon dactylon)
In short: as §1

soybean (Glycine max) = details: for Soybean plant response rating: scale 0 to 100 (0 no effect, 100 complete control)
In short: as §1

[8] = tested on: eastern black nightshade (Solanum ptycanthum); details: Preemergence, scale 0 to 100
In short: as §1

kochia (Kochia scoparia) = details: for Kochia plant response rating: scale 0 to 100 (0 no effect, 100 complete control)
In short: as §1

[9] = tested on: common (oilseed) sunflower (Helianthus annuus); details: Preemergence
In short: as §1

[10] = tested on: goosegrass (Eleusine indica); details: for Goosegrass plant response rating: scale 0 to 100 (0 no effect, 100 complete control)
In short: as §1

[11] = Postemergence, 250 g ai/ha, scale 0 to 100
[12] = Postemergence, 500 g ai/ha, scale 0 to 100
[13] = Preemergence, 62 g ai/ha, scale 0 to 100, 0 no effect, 100 complete control
[14] = Preemergence, 125 g ai/ha, scale 0 to 100
[15] = Preemergence, 250 g ai/ha, scale 0 to 100
[16] = Preemergence, 500 g ai/ha, scale 0 to 100

## COC(=O)CNc1nc(C2CC2)nc(C(=O)OC)c1Br [Compound 10]
[1]; Postemergence, 62 g ai/ha
  Johnsongrass plant response rating: 0
[1]; Postemergence, 125 g ai/ha
  Johnsongrass plant response rating: 0
[1]; [11]
  Plant response rating, Johnsongrass: 0
[1]; [12]
  Plant response rating, Johnsongrass: 0
[1]; [13]
  Plant response rating, Johnsongrass: 0
[1]; [14]
  Plant response rating, Johnsongrass: 0
[1]; [15]
  Plant response rating, Johnsongrass: 0
[1]; [16]
  Plant response rating, Johnsongrass: 0
[2]; Postemergence, 62 g ai/ha
  Velvetleaf plant response rating: 65
[2]; Postemergence, 125 g ai/ha
  Velvetleaf plant response rating: 70
[2]; [11]
  Plant response rating, Velvetleaf: 80
[2]; [12]
  Plant response rating, Velvetleaf: 90
[2]; [13]
  Plant response rating, Velvetleaf: 0
[2]; [14]
  Plant response rating, Velvetleaf: 0
[2]; [15]
  Plant response rating, Velvetleaf: 0
[2]; [16]
  Plant response rating, Velvetleaf: 60
[3]; Postemergence, 62 g ai/ha
  Ragweed plant response rating: 45
[3]; Postemergence, 125 g ai/ha
  Ragweed plant response rating: 65
[3]; [11]
  Plant response rating, Ragweed: 80
[3]; [12]
  Plant response rating, Ragweed: 90
[3]; [13]
  Plant response rating, Ragweed: 0
[3]; [14]
  Plant response rating, Ragweed: 0
[3]; [15]
  Plant response rating, Ragweed: 55
[3]; [16]
  Plant response rating, Ragweed: 85
[4]; Postemergence, 62 g ai/ha
  Lambsquarters plant response rating: 60
[4]; Postemergence, 125 g ai/ha
  Lambsquarters plant response rating: 80
[4]; [11]
  Plant response rating, Lambsquarters: 90
[4]; [12]
  Plant response rating, Lambsquarters: 100
[4]; [13]
  Plant response rating, Lambsquarters: 0
[4]; [14]
  Plant response rating, Lambsquarters: 50
[4]; [15]
  Plant response rating, Lambsquarters: 65
[4]; [16]
  Plant response rating, Lambsquarters: 95
[5]; Postemergence, 62 g ai/ha
  Cocklebur plant response rating: 0
[5]; Postemergence, 125 g ai/ha
  Cocklebur plant response rating: 15
[5]; Postemergence, 250 g ai/ha
  Plant response rating, Cocklebur: 60
[5]; Postemergence, 500 g ai/ha
  Plant response rating, Cocklebur: 75
[5]; Preemergence, 125 g ai/ha
  Plant response rating, Cocklebur: 0
[5]; Preemergence, 250 g ai/ha
  Plant response rating, Cocklebur: 0
[5]; Preemergence, 500 g ai/ha
  Plant response rating, Cocklebur: 100
[6]; Postemergence, 62 g ai/ha
  Pigweed plant response rating: 65
[6]; Postemergence, 125 g ai/ha
  Pigweed plant response rating: 80
[6]; [11]
  Plant response rating, Pigweed: 95
[6]; [12]
  Plant response rating, Pigweed: 95
[6]; [13]
  Plant response rating, Pigweed: 20
[6]; [14]
  Plant response rating, Pigweed: 55
[6]; [15]
  Plant response rating, Pigweed: 70
[6]; [16]
  Plant response rating, Pigweed: 85
[7]; Postemergence, 62 g ai/ha, scale 0 to 100 (0 no effect, 100 complete control)
  Bermudagrass plant response rating: 0
[7]; [11]
  Plant response rating, Bermudagrass: 0
[7]; [12]
  Plant response rating, Bermudagrass: 0
[7]; Postemergence, 125 g ai/ha, scale 0 to 100
  Plant response rating, Bermudagrass: 0
[7]; [13]
  Plant response rating, Bermudagrass: 0
[7]; [14]
  Plant response rating, Bermudagrass: 0
[7]; [15]
  Plant response rating, Bermudagrass: 0
[7]; [16]
  Plant response rating, Bermudagrass: 0
Soybean (Glycine max); Postemergence, 62 g ai/ha
  Soybean plant response rating: 70
Soybean (Glycine max); Postemergence, 125 g ai/ha
  Soybean plant response rating: 80
Soybean (Glycine max); [11]
  Plant response rating, Soybean: 90
Soybean (Glycine max); [12]
  Plant response rating, Soybean: 100
Soybean (Glycine max); [13]
  Plant response rating, Soybean: 0
[8]; 250 g ai/ha
  Plant response rating, Nightshade: 20
[8]; 500 g ai/ha
  Plant response rating, Nightshade: 95
Kochia (Kochia scoparia); Postemergence, 62 g ai/ha
  Kochia plant response rating: 80
Kochia (Kochia scoparia); Postemergence, 125 g ai/ha
  Kochia plant response rating: 90
Kochia (Kochia scoparia); [11]
  Plant response rating, Kochia: 95
Kochia (Kochia scoparia); [12]
  Plant response rating, Kochia: 100
Kochia (Kochia scoparia); [13]
  Plant response rating, Kochia: 0
Kochia (Kochia scoparia); [14]
  Plant response rating, Kochia: 0
Kochia (Kochia scoparia); [15]
  Plant response rating, Kochia: 45
Kochia (Kochia scoparia); [16]
  Plant response rating, Kochia: 65
[9]; 62 g ai/ha, scale 0 to 100, 0 no effect, 100 complete control
  Plant response rating, Sunflower: 0
[9]; 125 g ai/ha, scale 0 to 100
  Plant response rating, Sunflower: 0
[9]; 250 g ai/ha, scale 0 to 100
  Plant response rating, Sunflower: 0
[9]; 500 g ai/ha, scale 0 to 100
  Plant response rating, Sunflower: 0
[10]; Postemergence, 62 g ai/ha
  Goosegrass plant response rating: 0
[10]; Postemergence, 125 g ai/ha
  Goosegrass plant response rating: 0
[10]; [11]
  Plant response rating, Goosegrass: 0
[10]; [12]
  Plant response rating, Goosegrass: 0
[10]; [13]
  Plant response rating, Goosegrass: 0
[10]; [14]
  Plant response rating, Goosegrass: 0
[10]; [15]
  Plant response rating, Goosegrass: 0
[10]; [16]
  Plant response rating, Goosegrass: 0
